Source: the supplement of paper PMC10307832

Columns and labels:
Assay in all cases: relative viability (nuclei count vs DMSO), 5 days (fraction); higher = more cells survive
Bosutinib + Palbociclib = compound: COc1cc(Nc2c(C#N)cnc3cc(OCCCN4CCN(C)CC4)c(OC)cc23)c(Cl)cc1Cl [Bosutinib] + CC(=O)c1c(C)c2cnc(Nc3ccc(N4CCNCC4)cn3)nc2n(C2CCCC2)c1=O [Palbociclib] (partner 0.5 µM)
Procedure, shortened: (§1)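 Relative viability divides the nuclei count in treated wells by that in vehicle wells. Lung cancer cell lines were seeded in 1536-well plates, dosed by pin tool the next day, and fixed and stained after 5 days in one step with final 0.05% Triton X-100, 1% formaldehyde and 1 ug/ml Hoechst. Dosing was a single drug or a fixed anchor-drug dose plus five library-drug doses (not always all listed) in √10 steps, and values are medians of duplicate plates imaged at 4×.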

Bosutinib + Lapatinib = compound: COc1cc(Nc2c(C#N)cnc3cc(OCCCN4CCN(C)CC4)c(OC)cc23)c(Cl)cc1Cl [Bosutinib] + CS(=O)(=O)CCNCc1ccc(-c2ccc3ncnc(Nc4ccc(OCc5cccc(F)c5)c(Cl)c4)c3c2)o1 [Lapatinib] (partner 2 µM)
Procedure, shortened: as §1

Bosutinib + Phenformin = compound: COc1cc(Nc2c(C#N)cnc3cc(OCCCN4CCN(C)CC4)c(OC)cc23)c(Cl)cc1Cl [Bosutinib] + N=C(N)NC(=N)NCCc1ccccc1 [Phenformin] (partner 250 µM)
Procedure, shortened: as §1

Bosutinib + Pemetrexed = compound: COc1cc(Nc2c(C#N)cnc3cc(OCCCN4CCN(C)CC4)c(OC)cc23)c(Cl)cc1Cl [Bosutinib] + Nc1nc2[nH]cc(CCc3ccc(C(=O)N[C@@H](CCC(=O)O)C(=O)O)cc3)c2c(=O)[nH]1 [Pemetrexed] (partner 0.2 µM)
Procedure, shortened: as §1

Bosutinib + Olaparib = compound: COc1cc(Nc2c(C#N)cnc3cc(OCCCN4CCN(C)CC4)c(OC)cc23)c(Cl)cc1Cl [Bosutinib] + O=C(c1cc(Cc2n[nH]c(=O)c3ccccc23)ccc1F)N1CCN(C(=O)C2CC2)CC1 [Olaparib] (partner 8 µM)
Procedure, shortened: as §1

Row | Cell Line | relative viability (Bosutinib + Palbociclib; first compound 0.01 µM) | relative viability (Bosutinib + Palbociclib; first compound 0.03162 µM) | relative viability (Bosutinib + Palbociclib; first compound 0.1 µM) | relative viability (Bosutinib + Palbociclib; first compound 1 µM) | relative viability (Bosutinib + Lapatinib; first compound 0.01 µM) | relative viability (Bosutinib + Lapatinib; first compound 0.03162 µM) | relative viability (Bosutinib + Lapatinib; first compound 0.1 µM) | relative viability (Bosutinib + Lapatinib; first compound 1 µM) | relative viability (Bosutinib + Phenformin; first compound 0.01 µM) | relative viability (Bosutinib + Phenformin; first compound 0.03162 µM) | relative viability (Bosutinib + Phenformin; first compound 0.1 µM) | relative viability (Bosutinib + Phenformin; first compound 1 µM) | relative viability (Bosutinib + Pemetrexed; first compound 0.01 µM) | relative viability (Bosutinib + Pemetrexed; first compound 0.03162 µM) | relative viability (Bosutinib + Pemetrexed; first compound 0.1 µM) | relative viability (Bosutinib + Pemetrexed; first compound 1 µM) | relative viability (Bosutinib + Olaparib; first compound 0.01 µM) | relative viability (Bosutinib + Olaparib; first compound 0.03162 µM) | relative viability (Bosutinib + Olaparib; first compound 0.1 µM) | relative viability (Bosutinib + Olaparib; first compound 1 µM)
1 | NCI-H2347 | 0.499 | 0.425 | 0.432 | 0.453 | 0.923 | 1.05 | 0.911 | 0.989 | 0.323 | 0.453 | 0.54 | 0.376 | 0.434 | 0.469 | 0.462 | 0.421 | 0.491 | 0.609 | 0.545 | 0.539
2 | NCI-H2405 | 0.518 | 0.514 | 0.561 | 0.383 | 1.23 | 1.2 | 0.983 | 0.895 | 0.413 | 0.385 | 0.386 | 0.281 | 1.14 | 1.08 | 1.06 | 0.824 | 0.978 | 0.887 | 0.902 | 0.691
3 | NCI-H3122 | 0.214 | 0.18 | 0.201 | 0.218 | 0.99 | 1.05 | 1.02 | 0.933 | 0.399 | 0.375 | 0.35 | 0.3 | 0.201 | 0.199 | 0.207 | 0.202 | 0.678 | 0.653 | 0.658 | 0.559
4 | PC-3 [JPC-3] | 0.506 | 0.543 | 0.542 | 0.516 | 0.432 | 0.428 | 0.431 | 0.505 | 0.481 | 0.506 | 0.43 | 0.441 | 1.1 | 1.08 | 1.11 | 0.688 | 1.08 | 1.09 | 1.06 | 0.663
5 | PC-14 | 0.566 | 0.482 | 0.32 | 0.0932 | 0.35 | 0.309 | 0.298 | 0.227 | 0.539 | 0.585 | 0.5 | 0.277 | 0.134 | 0.135 | 0.13 | 0.145 | 0.241 | 0.342 | 0.208 | 0.21
